From US11078216B2, “Bisaryl amides as NRF2 activators” (GLAXOSMITHKLINE INTELLECTUAL PROPERTY DEVELOPMENT LIMITED, priority 2016, dated 2021)

System: NRF2 (NQO1 activity as marker for NRF2 activation), BEAS-2B cells
Assay: BEAS-2B NQO1 MTT Assay
Type: cell-based
Conditions: Homo sapiens, EC50 of NQO1 specific activity induction, 48 hours incubation, read-out: EC50
Outline: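 As a marker of NRF2 activation, NQO1 specific activity was read from the rate of absorbance change at 570 nm in MTT cocktail over 30 minutes. Lysates came from BEAS-2B cells treated for 48 hours at 37° C, and EC50 was derived by 3-parameter fitting.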

SMILES	EC50
CC[C@@H]1CN(Cc2cc([C@@H](c3ccc4c(nnn4CC)c3C)C(C)(C)NC(=O)c3cncnc3)ccc2C)S(=O)(=O)c2ccccc2O1 [Example 146, N-((S)-1-(3-(((R)-4-Ethyl-1,1-dioxido-3,4-dihydro-2H-benzo[b][1,4,5]oxathiazepin-2-yl)methyl)-4-methylphenyl)-1-(1-ethyl-4-methyl-1H-benzo[d][1,2,3]triazol-5-yl)-2-methylpropan-2-yl)pyrimidine-5-carboxamide]	10 to 100 nM
CC[C@@H]1CN(Cc2cc([C@@H](c3ccc4c(nnn4CC)c3C)C(C)(C)NC(=O)c3cnc(SC)nc3)ccc2C)S(=O)(=O)c2ccccc2O1 [Example 147, N-((S)-1-(3-(((R)-4-Ethyl-1,1-dioxido-3,4-dihydro-2H-benzo[b][1,4,5]oxathiazepin-2-yl)methyl)-4-methylphenyl)-1-(1-ethyl-4-methyl-1H-benzo[d][1,2,3]triazol-5-yl)-2-methylpropan-2-yl)-2-(methylthio)pyrimidine-5-carboxamide]	10 to 100 nM
CC[C@@H]1CN(Cc2cc([C@@H](c3ccc4c(nnn4CC)c3C)C(C)(C)NC(=O)c3c[nH]cn3)ccc2C)S(=O)(=O)c2ccccc2O1 [Example 148, N-((S)-1-(3-(((R)-4-Ethyl-1,1-dioxido-3,4-dihydro-2H-benzo[b][1,4,5]oxathiazepin-2-yl)methyl)-4-methylphenyl)-1-(1-ethyl-4-methyl-1H-benzo[d][1,2,3]triazol-5-yl)-2-methylpropan-2-yl)-1H-imidazole-4-carboxamide]	100 to 1000 nM
CC[C@@H]1CN(Cc2cc([C@@H](c3ccc4c(nnn4CC)c3C)C(C)(C)NC(=O)c3cscn3)ccc2C)S(=O)(=O)c2ccccc2O1 [Example 149, N-((S)-1-(3-(((R)-4-Ethyl-1,1-dioxido-3,4-dihydro-2H-benzo[b][1,4,5]oxathiazepin-2-yl)methyl)-4-methylphenyl)-1-(1-ethyl-4-methyl-1H-benzo[d][1,2,3]triazol-5-yl)-2-methylpropan-2-yl)thiazole-4-carboxamide]	10 to 100 nM
CC[C@@H]1CN(Cc2cc([C@@H](c3ccc4c(nnn4CC)c3C)C(C)(C)NC(=O)c3cc[nH]n3)ccc2C)S(=O)(=O)c2ccccc2O1 [Example 150, N-((S)-1-(3-(((R)-4-Ethyl-1,1-dioxido-3,4-dihydro-2H-benzo[b][1,4,5]oxathiazepin-2-yl)methyl)-4-methylphenyl)-1-(1-ethyl-4-methyl-1H-benzo[d][1,2,3]triazol-5-yl)-2-methylpropan-2-yl)-1H-pyrazole-3-carboxamide]	10 to 100 nM
CC[C@@H]1CN(Cc2cc([C@@H](c3ccc4c(nnn4CC)c3C)C(C)(C)NC(=O)c3cocn3)ccc2C)S(=O)(=O)c2ccccc2O1 [Example 151, N-((S)-1-(3-(((R)-4-Ethyl-1,1-dioxido-3,4-dihydro-2H-benzo[b][1,4,5]oxathiazepin-2-yl)methyl)-4-methylphenyl)-1-(1-ethyl-4-methyl-1H-benzo[d][1,2,3]triazol-5-yl)-2-methylpropan-2-yl)oxazole-4-carboxamide]	10 to 100 nM
CC[C@@H]1CN(Cc2cc([C@@H](c3ccc4c(nnn4CC)c3C)C(C)(C)NC(=O)c3ccno3)ccc2C)S(=O)(=O)c2ccccc2O1 [Example 152, N-((S)-1-(3-(((R)-4-Ethyl-1,1-dioxido-3,4-dihydro-2H-benzo[b][1,4,5]oxathiazepin-2-yl)methyl)-4-methylphenyl)-1-(1-ethyl-4-methyl-1H-benzo[d][1,2,3]triazol-5-yl)-2-methylpropan-2-yl)isoxazole-5-carboxamide]	1 to 10 nM
CC[C@@H]1CN(Cc2cc([C@@H](c3ccc4c(nnn4CC)c3C)C(C)(C)NC(=O)c3ccon3)ccc2C)S(=O)(=O)c2ccccc2O1 [Example 153, N-((S)-1-(3-(((R)-4-Ethyl-1,1-dioxido-3,4-dihydro-2H-benzo[b][1,4,5]oxathiazepin-2-yl)methyl)-4-methylphenyl)-1-(1-ethyl-4-methyl-1H-benzo[d][1,2,3]triazol-5-yl)-2-methylpropan-2-yl)isoxazole-3-carboxamide]	10 to 100 nM
CC[C@@H]1CN(Cc2cc([C@@H](c3ccc4c(nnn4CC)c3C)C(C)(C)NC(=O)c3cncc(F)c3)ccc2C)S(=O)(=O)c2ccccc2O1 [Example 154, N-((S)-1-(3-(((R)-4-Ethyl-1,1-dioxido-3,4-dihydro-2H-benzo[b][1,4,5]oxathiazepin-2-yl)methyl)-4-methylphenyl)-1-(1-ethyl-4-methyl-1H-benzo[d][1,2,3]triazol-5-yl)-2-methylpropan-2-yl)-5-fluoronicotinamide]	10 to 100 nM
CC[C@@H]1CN(Cc2cc([C@@H](c3ccc4c(nnn4CC)c3C)C(C)(C)NC(=O)c3cncc(C(F)(F)F)c3)ccc2C)S(=O)(=O)c2ccccc2O1 [Example 155, N-((S)-1-(3-(((R)-4-Ethyl-1,1-dioxido-3,4-dihydro-2H-benzo[b][1,4,5]oxathiazepin-2-yl)methyl)-4-methylphenyl)-1-(1-ethyl-4-methyl-1H-benzo[d][1,2,3]triazol-5-yl)-2-methylpropan-2-yl)-5-(trifluoromethyl) nicotinamide]	10 to 100 nM
CC[C@@H]1CN(Cc2cc([C@@H](c3ccc4c(nnn4CC)c3C)C(C)(C)NC(=O)c3ccc(=O)[nH]c3)ccc2C)S(=O)(=O)c2ccccc2O1 [Example 156, N-((S)-1-(3-(((R)-4-Ethyl-1,1-dioxido-3,4-dihydro-2H-benzo[b][1,4,5]oxathiazepin-2-yl)methyl)-4-methylphenyl)-1-(1-ethyl-4-methyl-1H-benzo[d][1,2,3]triazol-5-yl)-2-methylpropan-2-yl)-6-oxo-1,6-dihydropyridine-3-carboxamide]	100 to 1000 nM
CC[C@@H]1CN(Cc2cc([C@@H](c3ccc4c(nnn4CC)c3C)C(C)(C)NC(=O)c3cnc(S(C)(=O)=O)nc3)ccc2C)S(=O)(=O)c2ccccc2O1 [Example 157, N—((S)-1-(3-(((R)-4-Ethyl-1,1-dioxido-3,4-dihydro-2H-benzo[b][1,4,5]oxathiazepin-2-yl)methyl)-4-methylphenyl)-1-(1-ethyl-4-methyl-1H-benzo[d][1,2,3]triazol-5-yl)-2-methylpropan-2-yl)-2-(methylsulfonyl)pyrimidine-5-carboxamide]	100 to 1000 nM
CC[C@@H]1CN(Cc2cc([C@@H](c3ccc4c(nnn4CC)c3C)C(C)(C)NC(=O)c3cnc(N4CCC4)nc3)ccc2C)S(=O)(=O)c2ccccc2O1 [Example 158, 2-(Azetidin-1-yl)-N—((S)-1-(3-(((R)-4-ethyl-1,1-dioxido-3,4-dihydro-2H-benzo[b][1,4,5]oxathiazepin-2-yl)methyl)-4-methylphenyl)-1-(1-ethyl-4-methyl-1H-benzo[d][1,2,3]triazol-5-yl)-2-methylpropan-2-yl)pyrimidine-5-carboxamide]	10 to 100 nM
CC[C@@H]1CN(Cc2cc([C@@H](c3ccc4c(nnn4CC)c3C)C(C)(C)NC(=O)c3cnc(N4CCCC4)nc3)ccc2C)S(=O)(=O)c2ccccc2O1 [Example 159, N-((S)-1-(3-(((R)-4-Ethyl-1,1-dioxido-3,4-dihydro-2H-benzo[b][1,4,5]oxathiazepin-2-yl)methyl)-4-methylphenyl)-1-(1-ethyl-4-methyl-1H-benzo[d][1,2,3]triazol-5-yl)-2-methylpropan-2-yl)-2-(pyrrolidin-1-yl)pyrimidine-5-carboxamide]	10 to 100 nM
